# Results taken from paper PMC5131319, “Occurrence, temporal trends, and half-lives of perfluoroalkyl acids (PFAAs) in occupational workers in China” (Scientific Reports, 2016).
# “And” between values parts separate entries of the source, which are not always exact repeats. Identical values can stand only once. Like-named read-outs stand apart in the source and are kept apart here.
# How the values were obtained:
# [1] = Half-life estimated by daily clearance rates (first-order model, k = Cltotal/Vd); type: in vivo, human; details: for half-life: human, serum and urine, other: occupational exposure
# Description: Olsen et al.[21] found linear relationship between the logarithm of serum PFAAs concentration and time, and a first order model was adopted to estimate the half-lives of PFAAs. The elimination of PFAAs in humans was also described with the following equation: […]
# If we set C(t) as 1/2C0, then the half-life
# where k is the elimination rate constant. We calculated k using two approaches in the present study. In the first approach, k is defined as Cltotal/Vd, where Vd stands for the volume of distribution of PFAAs in the human body. Cltotal represents the total daily PFAAs clearance in the human body; for men and women older than 50, it refers to renal clearance, while for young women, it is defined as the sum of menstrual clearance and renal clearance. To keep consistency with other studies, Vd of PFOS and PFHxS were set at 230 mL kg^−1, and Vd of PFOA was set at 170 mL kg^−1 in this study. In the second approach, k is defined as the average annual decline rates of PFAAs in workers who participated in this study.
# We used a first order model to estimate the half-lives of PFAAs in workers (Eq (2)). k was defined as […], where Cltotal referred to renal clearance for men and women older than 50 and to the sum of menstrual clearance and renal clearance for young women. According to Eq (2), the half-lives of PFHxS, PFOA, and PFOS for the occupational workers tested ranged from 0.51–3799 years, 0.44–3663 years, and 0.76–30475 years, with GM and median values of 14.7 and 11.7, 4.1 and 4.0, 32.6 and 21.6 years, respectively (Table 2). […] The GM values of the half-lives of PFHxS, PFOA, and PFOS for men here were 19.9, 4.7, and 60.9 years, respectively, while those for women were 7.5, 3.1, and 8.0 years, respectively. The half-lives estimated by the limited clearance route information could be considered as the upper limits for PFAAs. It seemed likely that the unrealistically long half-life estimates derived from the urinary data were actually evidence of the contribution of fecal elimination to the clearance of these chemicals. The extremely long half-lives of PFAAs, such as 3799 years for PFHxS, 3663 years for PFOA, and 30475 years for PFOS, were caused by the application of LOD/2 instead of ND in workers’ urine samples. The geometric mean or median value of the PFAAs half-lives can better reflect the actual situation.
# [2] = PFAA concentration in morning urine of occupational workers (HPLC-ESI/MS/MS); type: in vivo, human; details: for Urine PFOA concentration: individual workers
# Description: The selected fluorochemical plant (Henxin Chemical Plant) in this study is one of the largest producers of PFOS-related chemicals in China and is located in Yingcheng, Hubei province. Perfluoroalkyl sulfonic acids (PFSAs) and perfluorotertiary amines are synthesized through an electro-chemical fluorination (ECF) process. We collected paired serum and urine samples from the occupational workers in the plant for five consecutive years, and the sampling activities were carried out in Nov. 2008, Nov. 2009, Nov. 2010, Dec. 2011, and Dec 2012, respectively. The Medical Research Ethics Committee, School of Medicine, Jianghan University, approved the ethics of this study, and all methods were performed in accordance with the relevant guidelines and regulations, moreover, all volunteers gave written informed consent. Demographic information of the donors, including gender, age, length of service, and work assignment, was collected with a questionnaire (Table S1). The sampled population included a total of 302 occupational workers, of which there were 89 female and 213 male participants. In total, 302 serum and 274 urine samples were collected.
# The participants were told not to eat breakfast before the sampling, and morning urine samples and blood samples were collected. Serum was separated from the blood by centrifugation at 1100 × g at 4 °C for 10 min and then placed on ice. Serum samples were then transferred to our laboratory on the same day and stored in polypropylene containers at −20 °C until analysis.
# All pre-treatment methods and instrument analysis of PFAAs in serum and urine samples are based on previous studies with minor modifications (see Supplementary Information)[3][31]. Based on the PFAA profiles in environmental matrices around the same plant in our previous study, only 3 main PFAAs, PFHxS, PFOA, and PFOS, were analyzed in the obtained serum and urine samples. Instrumental analysis of the PFAAs was performed by a HPLC-ESI/MS/MS system (HPLC: Waters 2695, MS: Waters Quattro Premier XE). The limits of detection (LODs) of PFHxS, PFOA, and PFOS were 0.020, 0.063, and 0.018 ng mL^−1 for serum samples and 0.008, 0.025, and 0.007 ng mL^−1 for urine samples, respectively. A procedural blank was performed for every batch of seven samples, and all of the blank levels were below the LODs. […] Details of quality assurance and quality control of the chemical analysis can be found in the Supplementary Information.
# Urine samples were pretreated by solid phase extraction. Briefly, 1 mL of urine spiked with 5 ng of internal standard was added to a 15 - mL PP tube and diluted with 13 mL water. The solid phase extraction procedure was then performed following the previously described serum extraction procedure.
# [3] = cited from earlier work
# [4] = Female workers, number 71, menstrual clearance added to renal clearance
# [5] = Fabric finishing agent department, N 8
compound,measurement,setting,value
"O=C(O)C(F)(F)C(F)(F)C(F)(F)C(F)(F)C(F)(F)C(F)(F)C(F)(F)F [PFOA, perfluorooctanoic acid]","Half-life estimated through daily elimination, Max",[1]; [4],11.1 years
same,"Half-life estimated through daily elimination, Median",[1]; [4],2.8 years
same,"Half-life estimated through daily elimination, Min",[1]; [4],0.44 years
same,"Half-life estimated through daily elimination, Min","[1]; Male workers, number 136, renal clearance",0.48 years
same,"Half-life estimated through daily elimination, Min","[1]; Total workers, number 207",0.44 years
same,half-life,"[1]; both sexes, Total workers, number 207, read-out: Half-life estimated through daily elimination, GM (converted)",1500 days
same,half-life,"[1]; both sexes, Total workers, number 207, read-out: Half-life estimated through daily elimination, Median (converted)",1460 days
same,half-life,"[1]; female, Female workers, number 71, menstrual clearance added to renal clearance, read-out: Half-life estimated through daily elimination, GM (converted)",1130 days
same,half-life,"[1]; male, Male workers, number 136, renal clearance, read-out: Half-life estimated through daily elimination, GM (converted)",1720 days
same,half-life,"[1]; male, Male workers, number 136, renal clearance, read-out: Half-life estimated through daily elimination, Median (converted)",1610 days
same,"Urine concentration, mean","[2]; All workers, N 274",4.3 ng/mL
same,"Urine concentration, median","[2]; All workers, N 274",1.9 ng/mL
same,"Urine concentration, mean","[2]; Electrolytic department, N 67",6.7 ng/mL
same,"Urine concentration, median","[2]; Electrolytic department, N 67",3.5 ng/mL
same,"Urine concentration, mean",[2]; [5],5.1 ng/mL
same,"Urine concentration, median",[2]; [5],1.5 ng/mL
same,"Urine concentration, range",[2]; [5],1.2 to 22.2 ng/mL
same,"Urine concentration, mean","[2]; Management office, N 76",1.5 ng/mL
same,"Urine concentration, median","[2]; Management office, N 76",0.86 ng/mL
same,"Urine concentration, mean","[2]; Research building, N 25",1.8 ng/mL
same,"Urine concentration, median","[2]; Research building, N 25",0.92 ng/mL
same,"Urine concentration, mean","[2]; Sulfonation department, N 98",4.8 ng/mL
same,"Urine concentration, median","[2]; Sulfonation department, N 98",2.7 ng/mL
same,Urine PFOA concentration,[2]; sampling year 2008,5.18 ng/mL and 0.0901 ng/mL and 0.0937 ng/mL and 0.178 ng/mL and 2.21 ng/mL and 7.6 ng/mL and 0.0489 ng/mL and 3.75 ng/mL and 2.54 ng/mL and 2.88 ng/mL and 0.67 ng/mL and 2.31 ng/mL and 1.03 ng/mL and 1.26 ng/mL and 0.0447 ng/mL and 0.688 ng/mL and 2.24 ng/mL and 2 ng/mL and 1.47 ng/mL and 0.668 ng/mL and 0.709 ng/mL and 0.448 ng/mL and 4.18 ng/mL and 5 ng/mL and 8.09 ng/mL and 7.15 ng/mL and 6.68 ng/mL
same,Urine PFOA concentration,[2]; sampling year 2009,3.45 ng/mL and 8.82 ng/mL and 14.8 ng/mL and 1.48 ng/mL and 15.8 ng/mL and 19.6 ng/mL and 6.9 ng/mL and 5.24 ng/mL and 1.14 ng/mL and 1.2 ng/mL and 1.69 ng/mL and 0.889 ng/mL and 4 ng/mL and 0.515 ng/mL and 2.24 ng/mL and 5.25 ng/mL and 1.05 ng/mL and 0.776 ng/mL and 0.537 ng/mL and 12.4 ng/mL and 4.34 ng/mL and 1.12 ng/mL and 15.3 ng/mL and 19.1 ng/mL and 10 ng/mL and 4.81 ng/mL
same,Shortest half-life in humans reported in previous studies,[3],1.2 years
same,Half-life (GM),[3]; retired fluorochemical production workers,3.5 years
